# Biological target: T1, human full-length HSP90 (Homo sapiens, UniProt P08238)
# T1 construct: E. coli expressed human full-length HSP90 protein; made in house; host or cells: E. coli
# Test: Fluorescence Polarisation Assay (displacement of fluorescein-labelled probe RBT0045864-FAM)
# Type: binding
# Settings: Fluorescence Polarisation Assay, activity range
# From the text: A Fluorescence Polarization_assay was also employed for the evaluation of some of the compounds of the Examples:
# Fluorescence polarization {also known as fluorescence anisotropy} measures the rotation of a fluorescing species in solution, where the larger molecule the more polarized the fluorescence emission.
# When the fluorophore is excited with polarized light, the emitted light is also polarized. The molecular size is proportional to the polarization of the fluorescence emission.
# Test compound is added to the assay plate, left to equilibrate and the anisotropy measured again. Any change in anisotropy is due to competitive binding of compound to HSP90, thereby releasing probe.
# Stored at room temperature. • 3) BSA (bovine serum albumen) 10 mg/ml (New England Biolabs # B9001S) • 4) 20 mM probe in 100 % DMSO stock concentration. Stored in the dark at RT. Working concentration is 200 nM diluted in AR water and stored at 4 °C.
# 1) Add 100µl 1x buffer to wells 11A and 12A (=FP BLNK) 2) Prepare assay mix - all reagents are kept on ice with a lid on the bucket as the probe is light-sensitive.
# This gives 2.5 mM {50x} stock cpd - assuming cpds 20 mM. • 4) Repeat for wells A2 to A10. Control in columns 11 and 12. • 5) Transfer 5 µl from row A to row B- not column 12. Mix well. • 6) Transfer 5 µl from row B to row C. […] Add 2 µl of 100mM standard cpd to wells B12 - H12 {is positive control } • 13)The Z' factor is calculated from zero controls and positive wells.
# T1 sequence (P08238 whole entry): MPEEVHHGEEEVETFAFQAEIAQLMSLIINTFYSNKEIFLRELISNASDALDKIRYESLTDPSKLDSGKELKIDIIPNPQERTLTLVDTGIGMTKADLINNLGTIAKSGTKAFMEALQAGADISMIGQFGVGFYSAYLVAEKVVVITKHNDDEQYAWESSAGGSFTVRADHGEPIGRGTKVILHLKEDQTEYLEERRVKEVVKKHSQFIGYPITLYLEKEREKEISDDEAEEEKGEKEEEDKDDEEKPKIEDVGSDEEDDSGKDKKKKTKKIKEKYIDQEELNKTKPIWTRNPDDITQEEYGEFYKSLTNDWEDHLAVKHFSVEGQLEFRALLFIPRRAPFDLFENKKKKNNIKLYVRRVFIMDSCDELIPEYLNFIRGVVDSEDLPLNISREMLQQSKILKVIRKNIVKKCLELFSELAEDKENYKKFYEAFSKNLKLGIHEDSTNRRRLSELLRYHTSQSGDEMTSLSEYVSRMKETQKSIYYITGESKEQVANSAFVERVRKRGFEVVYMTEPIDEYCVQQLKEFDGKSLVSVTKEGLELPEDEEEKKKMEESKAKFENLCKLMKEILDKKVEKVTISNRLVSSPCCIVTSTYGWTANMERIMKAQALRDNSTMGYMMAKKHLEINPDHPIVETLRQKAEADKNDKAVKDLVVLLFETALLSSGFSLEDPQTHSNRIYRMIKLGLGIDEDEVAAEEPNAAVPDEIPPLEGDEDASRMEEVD
row,SMILES,IC50 [µM]
1,CCNC(=O)c1noc(-c2cc(CCc3ccc(F)cc3)c(O)cc2O)c1-c1ccc(CN2CCCCC2)cc1 [Example 69],< 10
2,CCNC(=O)c1noc(-c2cc(CCc3ccc(F)cc3)c(O)cc2O)c1-c1ccc(CN2CCOCC2)cc1 [Example 70],< 10
3,CCNC(=O)c1noc(-c2cc(-c3ccc(F)cc3)c(O)cc2O)c1-c1ccc(F)cc1 [Example 71],< 10
4,CCNC(=O)c1noc(-c2cc(-c3ccc(F)cc3)c(O)cc2O)c1-c1ccc(CN2CCCCC2)cc1 [Example 72],< 10
5,CCNC(=O)c1noc(-c2cc(-c3ccc(F)cc3)c(O)cc2O)c1-c1ccc(CN2CCOCC2)cc1 [Example 73],< 10
6,CCNC(=O)c1noc(-c2cc(-c3ccccc3)c(O)cc2O)c1-c1ccc(CN2CCOCC2)cc1 [Example 74],< 10
7,CCNC(=O)c1noc(-c2cc(CCc3cccc(F)c3)c(O)cc2O)c1-c1ccc(CN2CCOCC2)cc1 [Example 75],< 10
8,"COc1ccc(-c2c(-c3cc(Br)c(O)cc3O)noc2C)cc1 [Example 76, 4-Bromo-6-[4-(4-methoxy-phenyl)-5-methyl-isoxazol-3-yl]-benzene-1,3-diol]",< 10
9,Cc1nc(-c2c(-c3ccc(O)cc3O)noc2C(F)(F)F)cs1 [Example 76A],> 10
10,"CCNC(=O)c1noc(-c2cc(C(C)(C)C)c(O)cc2O)c1-c1ccc(CN2CCOCC2)cc1 [Example 77, 5-(5-tert-Butyl-2,4-dihydroxy-phenyl)-4-(4-morpholin-4-ylmethyl-phenyl)-isoxazole-3-carboxylic acid ethylamide]",< 10

# Same assay, conditions: table names no assay; parent examples tested in fluorescence polarization assay
row,SMILES,IC50 [µM]
1,CCNC(=O)c1noc(-c2cc(CCc3cccc(C)c3)c(O)cc2O)c1-c1ccc(CN2CCCCC2)cc1 [Example 75a],< 10
2,CCNC(=O)c1noc(-c2cc(-c3ccccc3)c(O)cc2O)c1-c1ccc(CN2CCCCC2)cc1 [Example 75b],< 10
3,CCNC(=O)c1noc(-c2cc(CCc3cccc(C)c3)c(O)cc2O)c1-c1ccc(CN2CCOCC2)cc1 [Example 75c],< 10
4,CCNC(=O)c1noc(-c2cc(-c3ccccc3F)c(O)cc2O)c1-c1ccc(CN2CCCCC2)cc1 [Example 75d],< 10
5,CCNC(=O)c1noc(-c2cc(CCc3cccc(F)c3)c(O)cc2O)c1-c1ccc(CN2CCCCC2)cc1 [Example 75e],< 10
6,CCNC(=O)c1noc(-c2cc(-c3ccccc3F)c(O)cc2O)c1-c1ccc(CN2CCOCC2)cc1 [Example 75f],< 10
7,CCNC(=O)c1noc(-c2cc(-c3ccccc3F)c(O)cc2O)c1-c1ccc(CN2CCN(C)CC2)cc1 [Example 75g],< 10
8,CCNC(=O)c1noc(-c2cc(CCc3cccc(F)c3)c(O)cc2O)c1-c1ccc(CN(CC)CC)cc1 [Example 75h],< 10
9,CCNC(=O)c1noc(-c2cc(-c3ccccc3C)c(O)cc2O)c1-c1ccc(CN2CCCCC2)cc1 [Example 75m],< 10
10,CCNC(=O)c1noc(-c2cc(-c3ccccc3)c(O)cc2O)c1-c1ccc(CN(CC)CC)cc1 [Example 75p],< 10
11,CCNC(=O)c1noc(-c2cc(-c3ccc(F)cc3)c(O)cc2O)c1-c1ccc(CN2CCN(C)CC2)cc1 [Example 75q],< 10
12,CCNC(=O)c1noc(-c2cc(-c3ccc(F)cc3)c(O)cc2O)c1-c1ccc(CN(CC)CC)cc1 [Example 75r],< 10
13,CCNC(=O)c1noc(-c2cc(-c3ccccc3C)c(O)cc2O)c1-c1ccc(CN2CCN(C)CC2)cc1 [Example 75s],< 10
14,CCNC(=O)c1noc(-c2cc(-c3ccccc3C)c(O)cc2O)c1-c1ccc(CN(CC)CC)cc1 [Example 75t],< 10
15,CCNC(=O)c1noc(-c2cc(-c3c(C)noc3C)c(O)cc2O)c1-c1ccc(CN2CCCCC2)cc1 [Example 75v],< 10
16,CCNC(=O)c1onc(-c2cc(Cl)c(O)cc2O)c1-c1ccc(OC)cc1 [Example 76B],< 10
17,CCNC(=O)c1onc(-c2cc(Cl)c(O)cc2O)c1-c1ccc(CN2CCOCC2)cc1 [Example 76C],< 10
18,CCNC(=O)c1noc(-c2cc(C(C)(C)C)c(O)cc2O)c1-c1ccc(CN2CCOCC2)cc1 [Example 77a],< 10
19,CCNC(=O)c1noc(-c2cc(C(C)(C)C)c(O)cc2O)c1-c1ccc(CN(CC)CC)cc1 [Example 77b],< 10
20,CCNC(=O)c1noc(-c2cc(C(C)(C)C)c(O)cc2O)c1-c1ccc(CN2CCCCC2)cc1 [Example 77c],< 10
21,CCNC(=O)c1noc(-c2cc(C(C)(C)C)c(O)cc2O)c1-c1ccc(CN2CCN(C)CC2)cc1 [Example 77d],< 10

row,SMILES,IC50 [µM]
1,CCNC(=O)c1noc(-c2cc(C(C)(C)C)c(O)cc2O)c1-c1ccc(F)cc1 [Example 77e],< 10
2,CCNC(=O)c1noc(-c2cc(C(C)(C)C)c(O)cc2O)c1-c1ccc(OC)cc1 [Example 77f],< 10
3,CC(C)NC(=O)c1noc(-c2cc(C(C)C)c(O)cc2O)c1-c1ccc(CN2CCC(F)(F)CC2)cc1 [Example 78aa],< 10
4,CCNC(=O)c1noc(-c2cc(C(C)C)c(O)cc2O)c1-c1ccc(CNCC(F)(F)F)cc1 [Example 78ab],< 10
5,CCNC(=O)c1noc(-c2cc(C(C)C)c(O)cc2O)c1-c1ccc(CN2CCC(F)(F)CC2)cc1 [Example 78ac],< 10
6,CCNC(=O)c1noc(-c2cc(C(C)C)c(O)cc2O)c1-c1ccc(CNCC(=O)NC(C)C)cc1 [Example 78ad],< 10
7,CCNC(=O)c1noc(-c2cc(C(C)C)c(O)cc2O)c1-c1ccc(CN2CCC(N)CC2)cc1 [Example 78af],< 10
8,CCNC(=O)CNCc1ccc(-c2c(C(=O)NCC)noc2-c2cc(C(C)C)c(O)cc2O)cc1 [Example 78ah],< 10
9,CCNC(=O)c1noc(-c2cc(C(C)C)c(O)cc2O)c1-c1ccc(CN(CC)CC)cc1 [Example 78b],< 10
10,CCNC(=O)c1noc(-c2cc(C(C)C)c(O)cc2O)c1-c1ccc(CN2CCN(C)CC2)cc1 [Example 78c],< 10
11,CCNC(=O)c1noc(-c2cc(C(C)C)c(O)cc2O)c1-c1ccc(CNC(C)C)cc1 [Example 78e],< 10
12,CCNC(=O)c1noc(-c2cc(C(C)C)c(O)cc2O)c1-c1ccc(CNC(C)(C)C)cc1 [Example 78l],< 10
13,CCNC(=O)c1noc(-c2cc(C(C)C)c(O)cc2O)c1-c1ccc(CNCCOC)cc1 [Example 78m],< 10
14,CCNC(=O)c1noc(-c2cc(C(C)C)c(O)cc2O)c1-c1ccc(CNCCN(CC)CC)cc1 [Example 78n],< 10
15,CCNC(=O)c1noc(-c2cc(C(C)C)c(O)cc2O)c1-c1ccc(CN2CCNCC2)cc1 [Example 78p],< 10
16,CCNC(=O)c1noc(-c2cc(C(C)C)c(O)cc2O)c1-c1ccc(CNC2CCNCC2)cc1 [Example 78q],< 10
17,CC(C)NC(=O)c1noc(-c2cc(C(C)C)c(O)cc2O)c1-c1ccc(CN2CCOCC2)cc1 [Example 78s],< 10
18,CC(C)NC(=O)c1noc(-c2cc(C(C)C)c(O)cc2O)c1-c1ccc(CN2CCN(C)CC2)cc1 [Example 78t],< 10
19,CCN(CC)Cc1ccc(-c2c(C(=O)NC(C)C)noc2-c2cc(C(C)C)c(O)cc2O)cc1 [Example 78u],< 10
20,CC(C)NC(=O)c1noc(-c2cc(C(C)C)c(O)cc2O)c1-c1ccc(CNC2CCCCC2)cc1 [Example 78w],< 10
21,CC(C)NC(=O)c1noc(-c2cc(C(C)C)c(O)cc2O)c1-c1ccc(CNC2CCCC2)cc1 [Example 78y],< 10

# From patent EP1611112B1, “ISOXAZOLE COMPOUNDS AS INHIBITORS OF HEAT SHOCK PROTEINS” (Vernalis (Cambridge) Limited, priority 2003, dated 2004)
